Experimental data published in patent US7507803B2, “Optimized multi-epitope constructs and uses thereof” (priority 2002, dated 2009).
Where two headings read alike, the source gives them in different places. Ends that are not written are not given here.

What was measured:
HLA supertype alleles = assay type: binding, human
H2^bxd mice [1] = test: CTL response after peptide/IFA immunization, in situ ELISA; assay type: in vivo, mouse; details: peptide/IFA immunization of H2^bxd mice
HLA-A*2402 = HLA-A*2402 (Homo sapiens, UniProt P04439, D101N/D140Y/D185E/E176V/E190D/F33S/G103R/G107R/I119L/I121M/I306V/K335N/L105A/L180Q/L300P/N151K/N90K/Q86E/Q94H/R106L/R138H/R89G/T104I/T345S/V100E/W191G/Y123F); test: HLA class I peptide binding assay (purified HLA, IC50)
[2] = system: HLA-A*0201/K^b transgenic mice; test: CTL response after DNA immunization, 51Cr release assay (lytic units); assay type: in vivo, mouse
From the text: However, the magnitude and the frequency of the responses varied greatly between epitopes.
This assay to measure CTL activity is well known in the art. […] The LU calculation allows quantifying responses and thus readily comparing different experimental values.

H2^bxd mice [3] = test: HTL responses, primary IFN-γ ELISPOT on CD4 T cells; assay type: in vivo, mouse
Method: H2^bxd mice were immunized intramuscularly with 100 μg of a vaccine HBV HTL epigene construct or the individual peptides emulsified in CFA. Eleven days after the immunization CD4 T cells were purified from splenocytes and HTL responses were measured using a primary IFN-γ ELISPOT assay.
Eleven days after immunization, no booster immunizations were administered, CD4 T cells were purified from the spleen, and peptide specific HTL responses were measured in a primary γ-IFN ELISPOT assay.
The immunogenicity of the HTL epitopes was also characterized using H2^bxd mice.
This construct was tested for immunogenicity in H2^bxd mice (FIG. 28B), measuring IFN-γ production by CD4+ T-lymphocytes using an ELISPOT assay.

[4] = A1 or A24 supertype, three related alleles
[5] = A2, A3 or B7 supertype, five most common members

CC(C)C[C@H](NC(=O)[C@H](C)NC(=O)[C@H](CO)NC(=O)[C@H](C)NC(=O)[C@@H](NC(=O)[C@H](CC(=O)O)NC(=O)[C@H](CC(C)C)NC(=O)[C@H](CC(C)C)NC(=O)[C@@H](N)CC(=O)O)[C@@H](C)O)C(=O)N[C@@H](Cc1ccc(O)cc1)C(=O)O [core 419]
XRN (number of supertype alleles bound ≦500 nM) (HLA supertype alleles; [4]): 3

CC[C@H](C)[C@H](NC(=O)[C@@H](NC(=O)[C@H](Cc1ccccc1)NC(=O)[C@H](CCCNC(=N)N)NC(=O)[C@H](CCCNC(=N)N)NC(=O)[C@H](CC(C)C)NC(=O)[C@H](CS)NC(=O)[C@H](CCSC)NC(=O)[C@H](Cc1c[nH]c2ccccc12)NC(=O)[C@@H](N)CCCNC(=N)N)[C@@H](C)CC)C(=O)O [env 236]
XRN (number of supertype alleles bound ≦500 nM) (HLA supertype alleles; [4]): 3
Murine Immunogenicity (SU) (H2^bxd mice [1]): 339.6 SU

CSCC[C@H](NC(=O)[C@H](CCSC)NC(=O)[C@@H](N)Cc1c[nH]c2ccccc12)C(=O)N[C@@H](Cc1c[nH]c2ccccc12)C(=O)N[C@@H](Cc1ccc(O)cc1)C(=O)N[C@@H](Cc1c[nH]c2ccccc12)C(=O)NCC(=O)N1CCC[C@H]1C(=O)N[C@@H](CO)C(=O)N[C@@H](CC(C)C)C(=O)N[C@@H](Cc1ccc(O)cc1)C(=O)O [env 359]
XRN (number of supertype alleles bound ≦500 nM) (HLA supertype alleles; [4]): 3

CC[C@H](C)[C@H](NC(=O)[C@@H]1CCCN1C(=O)[C@H](CC(C)C)NC(=O)[C@@H](N)CC(C)C)C(=O)N[C@@H](Cc1ccccc1)C(=O)N[C@@H](Cc1ccccc1)C(=O)N[C@@H](CS)C(=O)N[C@@H](CC(C)C)C(=O)N[C@@H](Cc1c[nH]c2ccccc12)C(=O)N[C@H](C(=O)O)C(C)C [env 378]
XRN (number of supertype alleles bound ≦500 nM) (HLA supertype alleles; [5]): 1

C[C@H](N)C(=O)N[C@@H](CO)C(=O)N[C@@H](Cc1ccccc1)C(=O)N[C@@H](CS)C(=O)NCC(=O)N[C@@H](CO)C(=O)N1CCC[C@H]1C(=O)N[C@@H](Cc1ccc(O)cc1)C(=O)O [pol 166]
XRN (number of supertype alleles bound ≦500 nM) (HLA supertype alleles; [4]): 3

N[C@@H](CO)C(=O)N[C@@H](Cc1ccccc1)C(=O)N[C@@H](CS)C(=O)NCC(=O)N[C@@H](CO)C(=O)N1CCC[C@H]1C(=O)N[C@@H](Cc1ccc(O)cc1)C(=O)N[C@@H](CO)C(=O)N[C@@H](Cc1c[nH]c2ccccc12)C(=O)O [pol 167]
IC50 (HLA-A*2402): 146 nM
XRN (number of supertype alleles bound ≦500 nM) (HLA supertype alleles; [4]): 3

CC(C)[C@H](NC(=O)CNC(=O)CNC(=O)[C@@H](NC(=O)[C@@H](NC(=O)[C@H](CCCNC(=N)N)NC(=O)[C@H](C)NC(=O)[C@@H]1CCCN1C(=O)[C@@H](N)[C@@H](C)O)C(C)C)[C@@H](C)O)C(=O)N[C@@H](Cc1ccccc1)C(=O)O [pol 354]
XRN (number of supertype alleles bound ≦500 nM) (HLA supertype alleles; [5]): 2

CC(C)C[C@H](NC(=O)[C@H](CC(N)=O)NC(=O)[C@@H]1CCCN1C(=O)[C@@H](NC(=O)[C@H](C)NC(=O)[C@H](Cc1ccccc1)NC(=O)[C@H](CCCCN)NC(=O)[C@@H]1CCCN1C(=O)[C@H](Cc1c[nH]c2ccccc12)NC(=O)[C@@H](N)CO)C(C)C)C(=O)O [pol 392]
XRN (number of supertype alleles bound ≦500 nM) (HLA supertype alleles; [4]): 2
Murine Immunogenicity (SU) (H2^bxd mice [1]): 261.0 SU

CC(C)C[C@H](NC(=O)[C@H](CO)NC(=O)[C@@H](N)CC(C)C)C(=O)N[C@@H](CC(=O)O)C(=O)N[C@H](C(=O)N[C@@H](CO)C(=O)N[C@@H](C)C(=O)N[C@@H](C)C(=O)N[C@@H](Cc1ccccc1)C(=O)N[C@@H](Cc1ccc(O)cc1)C(=O)O)C(C)C [pol 415]
XRN (number of supertype alleles bound ≦500 nM) (HLA supertype alleles; [4]): 3

CC(C)C[C@H](NC(=O)[C@H](CCCNC(=N)N)NC(=O)[C@H](C)NC(=O)[C@@H](NC(=O)[C@H](Cc1ccc(O)cc1)NC(=O)[C@H](CCCNC(=N)N)NC(=O)[C@H](CO)NC(=O)[C@H](CC(C)C)NC(=O)CN)C(C)C)C(=O)O [pol 455]
XRN (number of supertype alleles bound ≦500 nM) (HLA supertype alleles; [5]): 3

CC(C)C[C@H](NC(=O)[C@H](CS)NC(=O)[C@H](Cc1c[nH]cn1)NC(=O)[C@@H]1CCCN1C(=O)[C@H](Cc1ccccc1)NC(=O)[C@H](C)N)C(=O)N[C@@H](C)C(=O)N[C@@H](Cc1ccccc1)C(=O)O [pol 529]
XRN (number of supertype alleles bound ≦500 nM) (HLA supertype alleles; [4]): 3

CC[C@H](C)[C@H](NC(=O)CNC(=O)[C@H](CC(C)C)NC(=O)[C@H](CO)NC(=O)[C@H](CC(C)C)NC(=O)[C@H](CC(C)C)NC(=O)[C@@H](N)Cc1ccccc1)C(=O)N[C@@H](Cc1c[nH]cn1)C(=O)N[C@@H](CC(C)C)C(=O)O [pol 562]
XRN (number of supertype alleles bound ≦500 nM) (HLA supertype alleles; [5]): 3

CSCC[C@H](NC(=O)[C@H](CC(C)C)NC(=O)[C@H](C)NC(=O)[C@@H]1CCCN1C(=O)[C@H](Cc1ccc(O)cc1)NC(=O)CN)C(=O)N1CCC[C@H]1C(=O)N[C@@H](CC(C)C)C(=O)N[C@@H](Cc1ccc(O)cc1)C(=O)O [pol 639]
IC50 (HLA-A*2402): 280 nM
XRN (number of supertype alleles bound ≦500 nM) (HLA supertype alleles; [4]): 2

CC[C@H](C)[C@H](NC(=O)[C@H](CS)NC(=O)[C@H](C)NC(=O)[C@H](Cc1ccc(O)cc1)NC(=O)[C@H](CC(C)C)NC(=O)[C@@H]1CCCN1C(=O)[C@H](CCSC)NC(=O)[C@H](CC(C)C)NC(=O)[C@H](C)N)C(=O)O [pol 642]
XRN (number of supertype alleles bound ≦500 nM) (HLA supertype alleles): 4

CC(C)C[C@H](NC(=O)[C@H](C)NC(=O)[C@H](CO)NC(=O)[C@@H]1CCCN1C(=O)[C@@H](NC(=O)[C@H](Cc1ccc(O)cc1)NC(=O)[C@@H](NC(=O)[C@H](Cc1ccccc1)NC(=O)[C@H](CO)NC(=O)[C@@H](NC(=O)CN)[C@@H](C)O)C(C)C)C(C)C)C(=O)N[C@@H](CC(N)=O)C(=O)N1CCC[C@H]1C(=O)N[C@@H](C)C(=O)N[C@@H](CC(=O)O)C(=O)O [pol 774]
HIV-FT Immunogenicity magnitude ([2]; 100 μg HIV-FT plasmid DNA i.m., CTL response to the epitope): 0 LU
Frequency (fraction of independent cultures yielding positive responses) ([2]; CTL response to the epitope after immunization with epigene construct HIV 1 (20 mer)): 0/8
HIV-FT Immunogenicity frequency (number cultures >2LU/total tested) ([2]; HIV-FT DNA): 0/8
HIV-FT Immunogenicity frequency of positive cultures ([2]; HIV-FT DNA, positive = >2LU): 0%
Frequency (fraction of independent cultures yielding positive responses) ([2]; epigene construct HIV 1.1 (10 mer)): 0/4

LWFHISCLTF [core 101]
IC50 (HLA-A*2402): 6.7 nM
XRN (number of supertype alleles bound ≦500 nM) (HLA supertype alleles; [4]): 3
Murine Immunogenicity (SU) (H2^bxd mice [1]): 0.0 SU

RFSWLSLLVPF [env 332]
IC50 (HLA-A*2402): 12 nM
XRN (number of supertype alleles bound ≦500 nM) (HLA supertype alleles; [4]): 2
Murine Immunogenicity (SU) (H2^bxd mice [1]): 0.0 SU

B1: HBV HTL: epigene construct encoding 16 HBV HTL epitopes with GPGPG spacers, SEQ ID NO: 73/74 (nucleic acid)
DNA: ATGGGAACTTCTTTTGTGTATGTCCCTTCCGCTCTGAACCCAGCAGACGGACCCGGGCCTGGCCTGTGCCAGGTCTTCGCCGACGCAACTCCCACAGGGTGGGGGCTGGGGCCAGGACCAGGCAGGCACTACCTGCATACTCTGTGGAAGGCAGGAATCCTCTATAAAGGGCCCGGCCCAGGCCCTCACCACACCGCCCTGAGGCAGGCCATCCTGTGCTGGGGGGAGCTCATGACCCTGGCCGGACCTGGACCCGGGGAGAGCAGACTGGTGGTGGATTTCAGCCAATTCAGCAGAGGAAACGGACCCGGCCCTGGGCCTTTTCTGCTGGCTCAGTTTACATCTGCTATTTGTTCTGTGGTCGGCCCCGGGCCCGGACTCGTGCCTTTCGTGCAGTGGTTCGTGGGACTGTCCCCTACAGTCGGGCCCGGCCCAGGGCTGCATCTGTACTCCCACCCAATCATCCTCGGCTTCCGCAAGATTGGACCCGGCCCAGGCTCCAGCAATCTCTCCTGGCTCTCTCTGGACGTGTCTGCCGCCTTTGGCCCTGGACCAGGCCTGCAAAGCCTGACTAATCTGCTCAGCAGCAACCTGTCCTGGCTGGGACCTGGCCCAGGGGCTGGCTTCTTTCTGCTCACCCGGATTCTCACAATTCCCCAGTCCGGACCAGGACCAGGAGTCAGTTTCGGGGTGTGGATCAGGACCCCTCCTGCTTATAGACCACCCAATGCTCCAATCGGCCCCGGCCCTGGCGTCGGGCCACTGACCGTGAATGAGAAGCGCCGGCTGAAGCTGATCGGCCCTGGCCCTGGCAAGCAGTGCTTTCGCAAACTGCCCGTGAACAGACCTATTGATTGGGGCCCCGGCCCTGGAGCAGCCAACTGGATTCTCAGGGGAACAAGCTTCGTCTACGTGCCCGGGCCCGGACCAGGGAAGCAGGCTTTTACCTTCTCTCCCACTTACAAGGCCTTCCTCTGTGGGCCAGGCCCCGGCGCCAAGTTTGTGGCAGCATGGACCCTCAAAGCCGCTGCCTGA
modifications: Hepatitis B virus
Epitopes with responses as vigorous as those induced by peptides emulsified in CFA (%) (H2^bxd mice [3]; 100 μg i.m., IFN-γ production by CD4+ T-lymphocytes): 50%
Epitopes that failed to induce a response (H2^bxd mice [3]; mouse, in vivo): two
Epitopes with responses as vigorous as those induced by peptides emulsified in CFA (fraction of epitopes tested) (H2^bxd mice [3]; mouse, in vivo): 6/12
